Experimental data as given in US20040054014A1, “Method and pharmaceutical compositions forthe treatment of cancer” (priority 2002, published 2004).

Tests used:
[1] = Animals' body weight (treatment toxicity) in P388/WT and P388/ADR models; format: in vivo, mice; details: fluoxetine 0.04 mg/kg daily oral only; DOX 3 mg/kg days 1, 5, 9; both tumor models
Description: (§1) P388/WT (non-resistant) or P388/ADR (MDR-acquired) murine leukemia cells were propagated in the peritoneum of BDF1 female mice by weekly transfer of 0.5 ml of peritoneal fluid containing 5×10^5 cells, to generate an intraperitoneal ascites model.
(§2) In both models, Doxorubicin (DOX) was tested. Doses of 3 mg/kg body were injected into the lateral tail vain, 1, 5 and 9 days after tumor inoculation.
(§3) Comparative experiments were run in parallel with the sensitive, non-resistant P388/WT model and the corresponding, MDR-acquired P388/ADR model. […] A group of untreated healthy animals was served as a control group. […] The fluoxetine was given in the drinking water, from tumor inoculation and on. Doxorubicin was injected into the lateral tail vain 1, 5 and 9 days post tumor inoculation. The effects of the various treatments on tumor response were monitored through animals' survival and animals' body weight. The latter was monitored in order to assess the treatment toxicity.

P388/ADR cells [2] = experiment: Intracellular accumulation of Doxorubicin, confocal microscopy (system II); format: cell-based, murine
Description: (§4) At the end of the incubation time, the cells were washed 6 times with PBS, fixed with a mounting medium (Mounting medium with anti-fading agents, Biomeda corp., CA, USA) and were analysed by Confocal microscopy (Zeiss LSM 510). Excitation was at 488 nm and emission was measured using a band pass filter of 505-550 nm.

[3] = test system: PANC-1, C6, MCF-7, U20S and HT1080 cell lines; details: 48 hours; for reduction in cell survival, drug alone: non-resistant cell lines, 0.1 μg/ml DOX, 0.3 μg/ml VIN
C-26 cells [4] = experiment: Solid tumor model (inherent MDR); format: in vivo, mice; details: for solid tumor volume with time, single agent: fluoxetine 0.04 mg/kg daily oral alone, MMC or DOX 5 mg/kg i.v. alone
Description: In the solid tumor model, MDR-inherent C-26 cells were injected into the animal's right-hind footpad.
In the solid tumor model, Mitomycin C (MMC) and Doxorubicin (DOX) were tested separately, each at a dose of 5 mg/kg body.

P388/ADR cell line = experiment: MTT cell viability, MDR-acquired cell line; format: cell-based, murine; details: for increase in cell death, combined treatment with DOX: DOX (1, 5, 10 μg/ml) + 5 μM chemosensitizer
Description: (§5) After 4 hours incubation, the treatment media was replaced with CS- and CT-free media and the experiment was terminated 24 hours later.

B16F10 cells = experiment: Lung metastasis model (inherent MDR); format: in vivo, mice; details: for lung metastatic burden (lung weight, number of metastasis), single agent: Doxorubicin 10 mg/kg alone, chemosensitizer 0.04 mg/kg daily oral alone
P388/WT cell line = experiment: MTT cell viability, non-resistant cell line; format: cell-based, murine
Description: as §5

C6 cells = details: cells loaded with 0.1 μg/ml DOX alone
C-26 cells [5] = experiment: Intracellular accumulation of Rhodamine-123, confocal microscopy (system II); format: cell-based, murine; details: 5 μM Rhodamine-123 + […] μM chemosensitizer, monolayers
Description: as §4

P388/ADR cells [6] = experiment: Intracellular accumulation of Rhodamine-123, flow cytometry (system I); format: cell-based, murine; details: 5 μM Rhodamine-123 + […] μM chemosensitizer, suspended cells
Description: The cells were thereafter analyzed for intracellular fluorescence, using a flow cytometer (Becton-Dickinson, USA). Excitation and emission were at 485 nm and 547 nm, respectively.

P388/ADR = experiment: Intraperitoneal ascites model, MDR-acquired tumor, survival; format: in vivo, mice; details: DOX 3 mg/kg + fluoxetine 0.04 mg/kg daily oral
[7] = cited from earlier work
C6 and PANC-1 cells = test system: C6 and PANC-1 cells; design: dose or concentration left out as unconfirmed; details: […] μM fluoxetine alone, 24 hours
[8] = test system: B16F10 and C-26 cell lines; details: Mitomycin C 50 μg/ml or Doxorubicin 1.0 μg/ml with 15 μM fluoxetine
P388/WT = experiment: Intraperitoneal ascites model, non-resistant tumor, survival; format: in vivo, mice; details: DOX 3 mg/kg + fluoxetine 0.04 mg/kg daily oral
Description: as §1, §2, §3

[9] = fluoxetine alone 1-20 μM, 4 hours then 20 hours CS-free media

Question: For `COc1cccc2c1C(=O)c1c(O)c3c(c(O)c1C2=O)C[C@@](O)(C(=O)CO)C[C@@H]3O[C@H]1C[C@H](N)[C@H](O)[C@H](C)O1` [Doxorubicin], which “change in body weight, single agent” value [1] is on record?
Answer: minor weight decrease

Question: What about the “intracellular accumulation of doxorubicin alone (confocal images)” value (P388/ADR cells [2]; 5 μg/ml Doxorubicin alone) of the same compound?
Answer: quite poor

Question: And the “reduction in cell survival, drug alone” value [3]?
Answer: 50%

Question: And the “solid tumor volume with time, single agent” value (“solid tumor volume with time” for short) (C-26 cells [4])?
Answer: increases fast and exponentially

Question: And the cell death (P388/ADR cell line; 5 μg/ml DOX alone)?
Answer: < 20%

Question: And the cell death (P388/ADR cell line; doubled drug concentration (10 μg/ml DOX) alone)?
Answer: about 30%

Question: And the “lung metastatic burden (lung weight, number of metastasis), single agent” value (B16F10 cells)?
Answer: only a mild reduction in the metastatic burden

Question: And the cell death (P388/WT cell line; 0.5 μg/ml DOX alone)?
Answer: about 50%

Question: And the cell death (P388/WT cell line; 5 μg/ml DOX alone)?
Answer: 100%

Question: What about the “time for complete depletion of intracellular DOX” value (C6 cells) of the same compound?
Answer: ≤ 2 h

Question: Which “solid tumor volume with time” value (C-26 cells [4]) does the source give for `CO[C@@]12[C@H](COC(N)=O)C3=C(C(=O)C(C)=C(N)C3=O)N1C[C@@H]1N[C@@H]12` [Mitomycin C] here?
Answer: increases fast and exponentially

Question: With `COc1ccc(CCN(C)CCCC(C#N)(c2ccc(OC)c(OC)c2)C(C)C)cc1OC` (centres unmarked) [Verapamil] as the compound, how does the “intracellular accumulation of Rhodamine-123 (confocal images)” value (C-26 cells [5]) read?
Answer: an increase in the intracellular level of Rhodamine-123

Question: And the “increase in cell death, combined treatment with DOX” value (P388/ADR cell line)?
Answer: modest increase in cell death

Question: What about the “increase of intracellular Rhodamine-123 fluorescence vs chemosensitizer-free control” value (P388/ADR cells [6]) of the same compound?
Answer: about 60%

Question: For `CC[C@]1(O)C[C@@H]2CN(CCc3c([nH]c4ccccc34)[C@@](C(=O)OC)(c3cc4c(cc3OC)N(C)[C@H]3[C@@](O)(C(=O)OC)[C@H](OC(C)=O)[C@]5(CC)C=CCN6CC[C@]43[C@@H]65)C2)C1` [Vinblastine], which “reduction in cell survival, drug alone” value [3] is on record?
Answer: 50%

Question: Which “elongated life span, combination of fluoxetine and DOX” value (P388/ADR) does the source give for `CNCCC(Oc1ccc(C(F)(F)F)cc1)c1ccccc1` (centres unmarked) [fluoxetine, N-methyl 3-(p-trifluoromethylphenoxy)-3-phenylpropylamine] here?
Answer: more than 2 fold

Question: And the “change in body weight, single agent” value [1]?
Answer: no weight loss

Question: And the “safe, substantially side effect-free daily dose range” value [7]?
Answer: 10-15 mg/M^2

Question: What about the “intracellular level of DOX (confocal images)” value (P388/ADR cells [2]; 5 μg/ml Doxorubicin + 5 μM fluoxetine, monolayers) of the same compound?
Answer: substantial increase in the intracellular level of DOX

Question: And the “intracellular accumulation of Rhodamine-123 (confocal images)” value (C-26 cells [5])?
Answer: substantially higher increase in the intracellular accumulation of Rhodamine-123

Question: What about the “toxicity to the cells” value ([3]; fluoxetine alone, 0-15 μM) of the same compound?
Answer: not toxic to the cells

Question: And the “survival prolonged vs saline, CS alone and CT alone” value (C-26 cells [4]; DOX+CS (DOX 5 mg/kg, fluoxetine 0.04 mg/kg daily oral))?
Answer: 3 fold

Question: And the “survival prolonged vs saline, CS alone and CT alone” value (C-26 cells [4]; MMC+CS (MMC 5 mg/kg, fluoxetine 0.04 mg/kg daily oral))?
Answer: 2 fold

Question: What about the “solid tumor growth, combination therapy” value (C-26 cells [4]; fluoxetine 0.04 mg/kg daily oral + MMC or DOX 5 mg/kg) of the same compound?
Answer: tumor growth is significantly slower

Question: And the “solid tumor volume with time” value (C-26 cells [4])?
Answer: increases fast and exponentially

Question: What about the “effect on cell survival” value (C6 and PANC-1 cells) of the same compound?
Answer: does not affect cell survival at all

Question: And the “increase in cell death, combined treatment with DOX” value (P388/ADR cell line)?
Answer: significant increase

Question: And the “increase in cell death as compared with Verapamil and CsA” value (P388/ADR cell line; DOX + 5 μM fluoxetine vs DOX + 5 μM Verapamil or CsA)?
Answer: 2-3 fold

Question: And the “effect on cells viability” value (P388/ADR cell line; [9])?
Answer: no effect on cells viability

Question: And the “survival, CS alone” value (B16F10 cells; 75-days experiment)?
Answer: died rather early

Question: And the “survival, combination treatment” value (B16F10 cells; CS + Doxorubicin, 75-days experiment)?
Answer: long survivors

Question: And the “lung metastatic burden (lung weight, number of metastasis), single agent” value (B16F10 cells)?
Answer: highest metastatic burden

Question: And the “lung metastatic burden, combination treatment” value (B16F10 cells; chemosensitizer + Doxorubicin 10 mg/kg)?
Answer: substantial reduction

Question: What about the “effect of combination treatment on level of cells death” value (P388/WT cell line; DOX with 5 μM fluoxetine vs DOX alone) of the same compound?
Answer: had no effect on the level of cells death

Question: What about the “effect on cells viability” value (P388/WT cell line; [9]) of the same compound?
Answer: no effect on cells viability

Question: What about the “cell death, combination of the drug and fluoxetine” value [8] of the same compound?
Answer: 80-90%

Question: And the “increase of intracellular Rhodamine-123 fluorescence vs chemosensitizer-free control” value (P388/ADR cells [6])?
Answer: about 200%

Question: And the “animals' survival, combined DOX and fluoxetine” value (P388/WT)?
Answer: had no effect on animal's survival
